Assay [1] concerns H929 human cancer cell lines. As to the kind of experiment: Cellular viability / proliferation (Cell TiterGlo, 72 h). The class given is cell-based. The gist of the method:
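Plating is at 1,000 cells/well in 10% FBS medium; after 24 h, compound is added as a 2-fold series starting at 50 μM with under 1% DMSO.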
Background: ATP-based viability assays read luminescence as a measure of living cells.

The next assay concerns the target Mcl-1 (Homo sapiens (Human), UniProt Q07820). As to the kind of experiment: Fluorescence polarization anisotropy (FPA) competition assay, FITC-Bak or FITC-Bim BH3 peptide. The conditions noted are these: read-out: Ki for Inhibition of Mcl-1 by FPA assay. The class given is binding. Background: In fluorescence polarisation assays a small probe gives low polarisation when free and higher when bound to something large.

[2] abbreviates: Homo sapiens, NCI-H929, 72 h, read-out: GI50 on cellular proliferation of H929 human cancer cell lines, H929 cells, 72 h, Cell TiterGlo, 10% FBS.
The mark [3] stands for this setting: read-out: GI50 on cellular proliferation of H929 human cancer cell lines, H929 cells, 72 h, Cell TiterGlo, 10% FBS.

Read-outs that look alike come from different tables or passages of the source. A value given as a limit tells only on which side of the number the result lay.

Mcl-1, sequence (Q07820 172-327): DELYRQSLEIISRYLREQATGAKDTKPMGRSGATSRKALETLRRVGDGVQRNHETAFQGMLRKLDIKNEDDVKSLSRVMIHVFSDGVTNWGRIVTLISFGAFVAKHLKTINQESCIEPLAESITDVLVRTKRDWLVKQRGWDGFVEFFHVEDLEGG

For orientation: Ki means a measure of affinity in units of concentration, obtained from inhibition or displacement. Take `CCn1nc(C(=O)O)c2cccc(N3C[C@@H](C)n4c(c(CCCOc5cc(C)c(Cl)c(C)c5)c5ccc(Cl)c(-c6c(C)nn(C)c6C)c54)C3=O)c21` [Example 118, (R)-7-(7-chloro-10-(3-(4-chloro-3,5-dimethylphenoxy)propyl)-4-methyl-1-oxo-6-(1,3,5-trimethyl-1H-pyrazol-4-yl)-3,4-dihydropyrazino[1,2-a]indol-2(1H)-yl)-1-ethyl-1H-indazole-3-carboxylic acid]: the GI50 in assay [1] (setting [2]) was 820 nM. Also, the Ki on Mcl-1 is less than 1 nM.
On to `Cc1cc(OCCCc2c3n(c4c(-c5c(C)ncnc5C)c(Cl)ccc24)CCCN(c2cccc4c(C(=O)O)cn(C)c24)C3=O)cc(C)c1Cl` [Example 119, 7-[8-chloro-11-[3-(4-chloro-3,5-dimethyl-phenoxy)propyl]-7-(4,6-dimethylpyrimidin-5-yl)-1-oxo-4,5-dihydro-3H-[1,4]diazepino[1,2-a]indol-2-yl]-1-methyl-indole-3-carboxylic acid], for which, in assay [1] (setting [2]), the GI50 came out at 2900 nM. Also, at Mcl-1, the Ki was less than 1 nM.
The like results for `Cc1cc(OCCCc2c3n(c4c(-c5c(C)ncnc5C)c(Cl)ccc24)CCCNC3=O)cc(C)c1Cl` [Example 120, 8-Chloro-11-(3-(4-chloro-3,5-dimethylphenoxy)propyl)-7-(4,6-dimethylpyrimidin-5-yl)-2,3,4,5-tetrahydro-1H-[1,4]diazepino[1,2-a]indol-1-one] were, in that order, 12000 nM and 39 nM.
Turning to `CCn1ncc2cc(C(=O)O)cc(N3CCCn4c(c(CCCOc5cc(C)c(Cl)c(C)c5)c5ccc(Cl)c(-c6c(C)nn(C)c6C)c54)C3=O)c21` [Example 122, 7-(8-Chloro-11-(3-(4-chloro-3,5-dimethylphenoxy)propyl)-1-oxo-7-(1,3,5-trimethyl-1H-pyrazol-4-yl)-4,5-dihydro-1H-[1,4]diazepino[1,2-a]indol-2(3H)-yl)-1-ethyl-1H-indazole-5-carboxylic acid], in assay [1] (setting [2]), the GI50 came out at 11000 nM. In addition, the Ki on Mcl-1 worked out at 2.2 nM.
Regarding `Cc1cc(OCCCc2c3n(c4c(-c5c(C)nn(C)c5C)c(Cl)ccc24)CCCN(c2cc(C(=O)O)cc4cnn(C)c24)C3=O)cc(C)c1Cl` [Example 123, 7-(8-Chloro-11-(3-(4-chloro-3,5-dimethylphenoxy)propyl)-1-oxo-7-(1,3,5-trimethyl-1H-pyrazol-4-yl)-4,5-dihydro-1H-[1,4]diazepino[1,2-a]indol-2(3H)-yl)-1-methyl-1H-indazole-5-carboxylic acid], the GI50 in assay [1] (setting [2]) was 6900 nM. Moreover, the Ki on Mcl-1 was less than 1 nM.
The like results for `CCn1cc2cc(C(=O)O)cc(N3CCCn4c(c(CCCOc5cc(C)c(Cl)c(C)c5)c5ccc(Cl)c(-c6c(C)nn(C)c6C)c54)C3=O)c2n1` [Example 124, 7-(8-chloro-11-(3-(4-chloro-3,5-dimethylphenoxy)propyl)-1-oxo-7-(1,3,5-trimethyl-1H-pyrazol-4-yl)-4,5-dihydro-1H-[1,4]diazepino[1,2-a]indol-2(3H)-yl)-2-ethyl-2H-indazole-5-carboxylic acid] were, in that order, 1900 nM and less than 1 nM.
In the same order, the values of `Cc1cc(OCCCc2c3n(c4c(-c5c(C)nn(C)c5C)c(Cl)ccc24)[C@H](C)CN(c2cccc4c2c(C(=O)O)nn4C)C3=O)cc(C)c1Cl` [Example 125, 4-[(4R)-7-chloro-10-[3-(4-chloro-3,5-dimethyl-phenoxy)propyl]-4-methyl-1-oxo-6-(1,3,5-trimethylpyrazol-4-yl)-3,4-dihydropyrazino[1,2-a]indol-2-yl]-1-methyl-indazole-3-carboxylic acid] are 7600 nM and less than 1 nM.
For the molecule `Cc1cc(OCCCc2c3n(c4c(-c5c(C)nn(C)c5C)c(Cl)ccc24)[C@H](C)CN(c2cccc4c2c(C(=O)O)nn4C)C3=O)cc(C)c1Cl` [Example 126, 4-[(4R)-7-chloro-10-[3-(4-chloro-3,5-dimethyl-phenoxy)propyl]-4-methyl-1-oxo-6-(1,3,5-trimethylpyrazol-4-yl)-3,4-dihydropyrazino[1,2-a]indol-2-yl]-1-methyl-indazole-3-carboxylic acid], the GI50 in assay [1] (setting [3]) was determined as 5100 nM. Besides, the Ki at Mcl-1 was less than 1 nM.
In the case of `Cc1cc(OCCCc2c3n(c4c(-c5c(C)nn(CC6CCOCC6)c5C)c(Cl)ccc24)[C@H](C)CN(c2cccc4c(C(=O)O)cn(C)c24)C3=O)cc(C)c1Cl` [Example 128, (R)-7-(7-chloro-10-(3-(4-chloro-3,5-dimethylphenoxy)propyl)-6-(3,5-dimethyl-1-((tetrahydro-2H-pyran-4-yl)methyl)-1H-pyrazol-4-yl)-4-methyl-1-oxo-3,4-dihydropyrazino[1,2-a]indol-2(1H)-yl)-1-methyl-1H-indole-3-carboxylic acid], the GI50 in assay [1] (setting [2]) was found to be 410 nM. Further, at Mcl-1, the Ki is less than 1 nM.
Take `Cc1cc(OCCCc2c3n(c4c(-c5c(C)n[nH]c5C)c(Cl)ccc24)[C@H](C)CN(c2cn(C)c4ccc(C(=O)O)cc24)C3=O)cc(C)c1Cl` [Example 129, (R)-3-(7-chloro-10-(3-(4-chloro-3,5-dimethylphenoxy)propyl)-6-(3,5-dimethyl-1H-pyrazol-4-yl)-4-methyl-1-oxo-3,4-dihydropyrazino[1,2-a]indol-2(1H)-yl)-1-methyl-1H-indole-5-carboxylic acid]: the GI50 in assay [1] (setting [2]) worked out at 550 nM. In addition, the Ki on Mcl-1 was less than 1 nM.
In the same order, the values of `Cc1cc(OCCCc2c3n(c4c(-c5c(C)ncnc5C)c(Cl)ccc24)CCCN(c2cc(C(=O)O)c4ccn(C)c4c2)C3=O)cc(C)c1Cl` [Example 130, 6-[8-Chloro-11-[3-(4-chloro-3,5-dimethyl-phenoxy)propyl]-7-(4,6-dimethylpyrimidin-5-yl)-1-oxo-4,5-dihydro-3H-[1,4]diazepino[1,2-a]indol-2-yl]-1-methyl-indole-4-carboxylic acid] are 2400 nM and less than 1 nM.
The like results for `Cc1cc(OCCCc2c3n(c4c(-c5c(C)nn(C)c5C)c(Cl)ccc24)[C@H](C)CN(c2cc(C(=O)O)c4cnn(C(C)C)c4c2)C3=O)cc(C)c1Cl` [Example 131, 6-[(4R)-7-chloro-10-[3-(4-chloro-3,5-dimethyl-phenoxy)propyl]-4-methyl-1-oxo-6-(1,3,5-trimethylpyrazol-4-yl)-3,4-dihydropyrazino[1,2-a]indol-2-yl]-1-isopropyl-indazole-4-carboxylic acid] were, in that order, 1900 nM and less than 1 nM.
In the same order, the values of `Cc1cc(OCCCc2c3n(c4c(-c5c(C)nn(C)c5C)c(Cl)ccc24)[C@H](C)CN(c2cccc4nn(C)c(C(=O)O)c24)C3=O)cc(C)c1Cl` [Example 132, 4-[(4R)-7-chloro-10-[3-(4-chloro-3,5-dimethyl-phenoxy)propyl]-4-methyl-1-oxo-6-(1,3,5-trimethylpyrazol-4-yl)-3,4-dihydropyrazino[1,2-a]indol-2-yl]-2-methyl-indazole-3-carboxylic acid] are 840 nM and less than 1 nM.
As to `Cc1cc(OCCCc2c3n(c4c(-c5c(C)nn(C)c5C)c(Cl)ccc24)[C@H](C)CN(c2cccc4nn(C)c(C(=O)O)c24)C3=O)cc(C)c1Cl` [Example 133, 4-[(4R)-7-chloro-10-[3-(4-chloro-3,5-dimethyl-phenoxy)propyl]-4-methyl-1-oxo-6-(1,3,5-trimethylpyrazol-4-yl)-3,4-dihydropyrazino[1,2-a]indol-2-yl]-2-methyl-indazole-3-carboxylic acid], the GI50 in assay [1] (setting [3]) was 1400 nM. Further, the Ki at Mcl-1 was less than 1 nM.
Take `Cc1cc(OCCCc2c3n(c4c(-c5c(C)nn(C)c5C)c(Cl)ccc24)[C@H](C)CN(c2cccc4c2ccn4CC(=O)O)C3=O)cc(C)c1Cl` [Example 134, (R)-2-(4-(7-Chloro-10-(3-(4-chloro-3,5-dimethylphenoxy)propyl)-4-methyl-1-oxo-6-(1,3,5-trimethyl-1H-pyrazol-4-yl)-3,4-dihydropyrazino[1,2-a]indol-2(1H)-yl)-1H-indol-1-yl)acetic acid]: in assay [1] (setting [2]), the GI50 came to 11000 nM. Also, at Mcl-1, the Ki is less than 1 nM.
With `Cc1cc(OCCCc2c3n(c4c(-c5c(C)nn(CC6CCN(C)CC6)c5C)c(Cl)ccc24)[C@H](C)CN(c2cccc4c(C(=O)O)cn(C)c24)C3=O)cc(C)c1Cl` [Example 137, (R)-7-(7-chloro-10-(3-(4-chloro-3,5-dimethylphenoxy)propyl)-6-(3,5-dimethyl-1-((1-methylpiperidin-4-yl)methyl)-1H-pyrazol-4-yl)-4-methyl-1-oxo-3,4-dihydropyrazino[1,2-a]indol-2(1H)-yl)-1-methyl-1H-indole-3-carboxylic acid], the GI50 in assay [1] (setting [2]) was 460 nM. The Ki on Mcl-1 came to 1.2 nM.
`Cc1cc(OCCCc2c3n(c4c(-c5c(C)nn(C)c5C)c(Cl)ccc24)[C@H](C)CN(c2cc(C(=O)O)c4ncccc4c2)C3=O)cc(C)c1Cl` [Example 138, (R)-6-(7-chloro-10-(3-(4-chloro-3,5-dimethylphenoxy)propyl)-4-methyl-1-oxo-6-(1,3,5-trimethyl-1H-pyrazol-4-yl)-3,4-dihydropyrazino[1,2-a]indol-2(1H)-yl)quinoline-8-carboxylic acid]: the GI50 in assay [1] (setting [2]) stood at 4800 nM. Besides, the Ki on Mcl-1 was 2.2 nM.
The like results for `Cc1cc(OCCCc2c3n(c4c(-c5c(C)nn(C)c5C)c(Cl)ccc24)[C@H](C)[C@@H](C)NC3=O)cc(C)c1Cl` [Example 140, (3R,4R)-7-chloro-10-(3-(4-chloro-3,5-dimethylphenoxy)propyl)-3,4-dimethyl-6-(1,3,5-trimethyl-1H-pyrazol-4-yl)-3,4-dihydropyrazino[1,2-a]indol-1(2H)-one] were, in that order, 7600 nM and 79 nM.
`Cc1cc(OCCCc2c3n(c4c(-c5c(C)nn(C)c5C)c(Cl)ccc24)[C@H](C)[C@@H](C)N(c2cccc(C(=O)O)c2)C3=O)cc(C)c1Cl` [Example 141, 3-((3R,4R)-7-chloro-10-(3-(4-chloro-3,5-dimethylphenoxy)propyl)-3,4-dimethyl-1-oxo-6-(1,3,5-trimethyl-1H-pyrazol-4-yl)-3,4-dihydropyrazino[1,2-a]indol-2(1H)-yl)benzoic acid]: in assay [1] (setting [2]), the GI50 worked out at 9500 nM. For the same molecule, the Ki on Mcl-1 was determined as 4.5 nM.
